Data from the NIST ThermoML archive (doi:10.1021/je7004374).
Numbers after ± are expanded uncertainties.

Key:
[1] = refractive index (Na D-line) (dimensionless); conditions: 298.15 K; 101.33 kPa; Liquid; Standard Abbe refractometry
[2] = Liquid

CC(O)CO (centres undefined) [1,2-propanediol]
Conditions	refractive index
[1]	1.431 ± 0.0008

[2]
Conditions	mass density [kg/m3]
283.16 K, 101.33 kPa	1043.43 ± 0.26
288.15 K, 101.33 kPa	1039.84 ± 0.25
293.15 K, 100 kPa	1036.22 ± 0.25
293.15 K, 10000 kPa	1040.95 ± 0.31
293.15 K, 20000 kPa	1045.52 ± 0.4
293.15 K, 30000 kPa	1049.89 ± 0.49
293.15 K, 40000 kPa	1054.08 ± 0.6
293.15 K, 50000 kPa	1058.13 ± 0.72
293.15 K, 60000 kPa	1062.03 ± 0.86
293.15 K, 70000 kPa	1065.8 ± 1
293.15 K, 80000 kPa	1069.46 ± 1.1
293.15 K, 90000 kPa	1073.01 ± 1.3
293.15 K, 100000 kPa	1076.45 ± 1.5
293.16 K, 101.33 kPa	1036.21 ± 0.25
298.15 K, 100 kPa	1032.55 ± 0.24
298.15 K, 10000 kPa	1037.38 ± 0.3
298.15 K, 20000 kPa	1042.03 ± 0.38
298.15 K, 30000 kPa	1046.08 ± 0.47
298.15 K, 40000 kPa	1050.75 ± 0.58
298.15 K, 50000 kPa	1054.86 ± 0.69
298.15 K, 60000 kPa	1058.82 ± 0.82
298.15 K, 70000 kPa	1062.66 ± 0.96
298.15 K, 80000 kPa	1066.37 ± 1.1
298.15 K, 90000 kPa	1069.96 ± 1.3
298.15 K, 100000 kPa	1073.46 ± 1.4
298.16 K, 101.33 kPa	1032.54 ± 0.24
303.15 K, 100 kPa	1028.84 ± 0.24
303.15 K, 10000 kPa	1033.77 ± 0.29
303.15 K, 20000 kPa	1038.51 ± 0.36
303.15 K, 30000 kPa	1043.04 ± 0.45
303.15 K, 40000 kPa	1047.38 ± 0.55
303.15 K, 50000 kPa	1051.56 ± 0.66
303.15 K, 60000 kPa	1055.59 ± 0.79
303.15 K, 70000 kPa	1059.48 ± 0.92
303.15 K, 80000 kPa	1063.24 ± 1.1
303.15 K, 90000 kPa	1066.89 ± 1.2
303.15 K, 100000 kPa	1070.44 ± 1.4
303.16 K, 101.33 kPa	1028.83 ± 0.24
308.15 K, 100 kPa	1025.1 ± 0.2
308.15 K, 101.33 kPa	1025.09 ± 0.23
308.15 K, 10000 kPa	1030.12 ± 0.28
308.15 K, 20000 kPa	1034.95 ± 0.35
308.15 K, 30000 kPa	1039.56 ± 0.43
308.15 K, 40000 kPa	1043.98 ± 0.52
308.15 K, 50000 kPa	1048.23 ± 0.63
308.15 K, 60000 kPa	1052.32 ± 0.75
308.15 K, 70000 kPa	1056.27 ± 0.88
308.15 K, 80000 kPa	1060.1 ± 1
308.15 K, 90000 kPa	1063.8 ± 1.2
308.15 K, 100000 kPa	1067.39 ± 1.3
313.15 K, 100 kPa	1021.31 ± 0.23
313.15 K, 101.33 kPa	1021.3 ± 0.23
313.15 K, 10000 kPa	1026.44 ± 0.27
313.15 K, 20000 kPa	1031.36 ± 0.33
313.15 K, 30000 kPa	1036.06 ± 0.41
313.15 K, 40000 kPa	1040.55 ± 0.5
313.15 K, 50000 kPa	1044.87 ± 0.6
313.15 K, 60000 kPa	1049.03 ± 0.72
313.15 K, 70000 kPa	1053.04 ± 0.84
313.15 K, 80000 kPa	1056.92 ± 0.98
313.15 K, 90000 kPa	1060.68 ± 1.1
313.15 K, 100000 kPa	1064.32 ± 1.3
318.15 K, 100 kPa	1017.48 ± 0.22
318.16 K, 101.33 kPa	1017.48 ± 0.22
323.15 K, 101.33 kPa	1013.61 ± 0.22
328.16 K, 101.33 kPa	1009.71 ± 0.21
333.15 K, 101.33 kPa	1005.76 ± 0.21
338.16 K, 101.33 kPa	1001.77 ± 0.21
343.15 K, 101.33 kPa	997.745 ± 0.21
348.15 K, 101.33 kPa	993.675 ± 0.21
353.15 K, 101.33 kPa	989.56 ± 0.22
358.15 K, 101.33 kPa	985.405 ± 0.22
363.15 K, 101.33 kPa	981.219 ± 0.23

[2]
Conditions	speed of sound [m/s]
292.87 K, 45590 kPa, Sing-around technique in a fixed-path interferometer	1674.4 ± 2.2
292.87 K, 60790 kPa, Sing-around technique in a fixed-path interferometer	1717.8 ± 2.3
292.87 K, 101320 kPa, Sing-around technique in a fixed-path interferometer	1821.9 ± 2.3
292.88 K, 15200 kPa, Sing-around technique in a fixed-path interferometer	1578.7 ± 2.2
292.88 K, 30390 kPa, Sing-around technique in a fixed-path interferometer	1628.5 ± 2.2
292.88 K, 75990 kPa, Sing-around technique in a fixed-path interferometer	1758.5 ± 2.3
292.88 K, 91180 kPa, Sing-around technique in a fixed-path interferometer	1797.3 ± 2.3
292.92 K, 100 kPa, Sing-around technique in a fixed-path interferometer	1523.1 ± 1.5
293.15 K, 101.33 kPa, Pulse-echo method	1522.4 ± 1.5
298.15 K, 101.33 kPa, Pulse-echo method	1508.4 ± 1.5
298.15 K, 45590 kPa, Sing-around technique in a fixed-path interferometer	1661.6 ± 2.2
298.15 K, 60790 kPa, Sing-around technique in a fixed-path interferometer	1705.2 ± 2.3
298.15 K, 75990 kPa, Sing-around technique in a fixed-path interferometer	1746.5 ± 2.3
298.16 K, 15200 kPa, Sing-around technique in a fixed-path interferometer	1564.2 ± 2.2
298.16 K, 30390 kPa, Sing-around technique in a fixed-path interferometer	1615.1 ± 2.2
298.16 K, 91180 kPa, Sing-around technique in a fixed-path interferometer	1785.6 ± 2.3
298.16 K, 101320 kPa, Sing-around technique in a fixed-path interferometer	1810.5 ± 2.3
298.2 K, 100 kPa, Sing-around technique in a fixed-path interferometer	1508.3 ± 1.5
303.13 K, 60790 kPa, Sing-around technique in a fixed-path interferometer	1693.5 ± 2.3
303.13 K, 101320 kPa, Sing-around technique in a fixed-path interferometer	1799.9 ± 2.3
303.14 K, 15200 kPa, Sing-around technique in a fixed-path interferometer	1551 ± 2.2
303.14 K, 30390 kPa, Sing-around technique in a fixed-path interferometer	1602.4 ± 2.2
303.14 K, 45590 kPa, Sing-around technique in a fixed-path interferometer	1649.6 ± 2.2
303.14 K, 75990 kPa, Sing-around technique in a fixed-path interferometer	1735.4 ± 2.3
303.14 K, 91180 kPa, Sing-around technique in a fixed-path interferometer	1774.8 ± 2.3
303.15 K, 101.33 kPa, Pulse-echo method	1494.3 ± 1.5
303.18 K, 100 kPa, Sing-around technique in a fixed-path interferometer	1494.2 ± 1.5
308.12 K, 60790 kPa, Sing-around technique in a fixed-path interferometer	1682 ± 2.3
308.12 K, 75990 kPa, Sing-around technique in a fixed-path interferometer	1724.1 ± 2.3
308.12 K, 91180 kPa, Sing-around technique in a fixed-path interferometer	1764 ± 2.3
308.12 K, 101320 kPa, Sing-around technique in a fixed-path interferometer	1789.3 ± 2.3
308.13 K, 15200 kPa, Sing-around technique in a fixed-path interferometer	1537.7 ± 2.2
308.13 K, 30390 kPa, Sing-around technique in a fixed-path interferometer	1589.5 ± 2.2
308.13 K, 45590 kPa, Sing-around technique in a fixed-path interferometer	1637.6 ± 2.2
308.15 K, 101.33 kPa, Pulse-echo method	1480.2 ± 1.5
308.17 K, 100 kPa, Sing-around technique in a fixed-path interferometer	1480.1 ± 1.5
313.15 K, 101.33 kPa, Pulse-echo method	1466 ± 1.5
313.31 K, 15200 kPa, Sing-around technique in a fixed-path interferometer	1524.2 ± 2.2
313.31 K, 30390 kPa, Sing-around technique in a fixed-path interferometer	1576.4 ± 2.2
313.31 K, 45590 kPa, Sing-around technique in a fixed-path interferometer	1625 ± 2.2
313.31 K, 60790 kPa, Sing-around technique in a fixed-path interferometer	1669.9 ± 2.3
313.31 K, 75990 kPa, Sing-around technique in a fixed-path interferometer	1712.6 ± 2.3
313.31 K, 91180 kPa, Sing-around technique in a fixed-path interferometer	1752.8 ± 2.3
313.31 K, 101320 kPa, Sing-around technique in a fixed-path interferometer	1778.5 ± 2.3
313.35 K, 100 kPa, Sing-around technique in a fixed-path interferometer	1465.4 ± 1.5
